This is an account of results in patent US11365183B2, “Eicosanoid derivatives” (MAX-DELBRUECK-CENTRUM FUER MOLEKULARE MEDIZIN, priority 2009, dated 2022).

“Also recorded” adds a separate entry of the source.

Data set [1] has as its system neonatal rat cardiomyocytes (NRCMs). The experiment in a line: Chronotropic effect on spontaneous beating rate of cultured neonatal rat cardiomyocytes (identification of agonists). Type of data set: cell-based. As to conditions: 30 nM, incubation time 5 min; for agonistic / chronotropic effect on NRCMs, in words: compound alone. The text has this: This negative chronotropic effect reflects the capacity of the analogs to interact with and to activate a G-protein coupled receptor or other primary cellular targets that reduce the contractility of cardiomyocytes under basal and stress-induced conditions.
The compounds included EPA and 17,18-EETeTr (compounds 01 and 02; purchased from Cayman Chemical) as well as all but one (compound 16) of the analogs synthesized as described in examples 1-24. The R,S— and S,R-enantiomers of 17,18-EETeTr (compounds 03 and 04) were prepared resolving the racemic mixture (compound 02) by means of chiral-phase HPLC as described previously (Barbosa-Sicard E, Markovic M, Honeck H, Christ B, Muller D N, Schunck W H. Biochem Biophys Res Commun. 2005 Apr. 22; 329(4):1275-81). Before use, the compounds to be tested were prepared as 1000-fold stock solutions in ethanol.
Isolation and cultivation of NRCMs were performed as described previously (Wallukat, G; Wollenberger, A. Biomed Biochim Acta. 1987; 78:634-639; Wallukat G, Homuth V, Fischer T, Lindschau C, Horstkamp B, Jupner A, Baur E, Nissen E, Vetter K, Neichel D, Dudenhausen J W, Haller H, Luft F C. J Clin Invest. 1999; 103: 945-952). Briefly, neonatal Wistar rats (1-2 days old) were killed in conformity to the recommendations of the Community of Health Service of the City of Berlin and the cardiomyocytes were dissociated from the minced ventricles with a 0.2% solution of crude trypsin. The isolated cells were then cultured as monolayers on the bottom (12.5 cm^2) of Falcon flasks in 2.5 ml of Halle S M 20-I medium equilibrated with humidified air. The medium contained 10% heat-inactivated FCS and 2 μmol/l fluoro-deoxyuridine (Serva, Heidelberg, Germany), the latter to prevent proliferation of non-muscle cells. The NRCMs (2.4×10^6 cells/flask) were cultured at 37° C. in an incubator. After 5 to 7 days, the NRCMs formed spontaneously beating cell clusters. […] On the day of the experiment, the culture medium was replaced by 2.0 ml fresh serum-containing medium. Two hours later, the beating rates were monitored at 37° C. using an inverted microscope equipped with a heating stage. To determine the basal rate, 6 to 8 individual clusters were selected and the number of contractions was counted for 15 sec. After that, the compound to be tested was added to the culture and the beating rate of the same clusters was monitored 5 min later again. Based on the difference between the basal and compound-induced beating rate of the individual clusters, the chronotropic effects (Δ beats/min) were calculated and are given as mean±SE values. N refers to the number of clusters monitored which originated, in general, from at least three independent NRCM cultures.
This effect was fully expressed using an EPA concentration of 3.3 μM and an incubation time of 30 min. In contrast, 17,18-EETeTr (C02) produced the same effect almost immediately and already in the low nanomolar range (EC50 of 1-2 nM, data not shown). To compare the activity of 17,18-EETeTr with that of its synthetic analogs, all these compounds were tested at a final concentration of 30 nM and using an incubation time of 5 min.

Data set [2] has as its system rat model of myocardial infarction. The experiment in a line: Anti-arrhythmic effect in rat model of myocardial infarction (LAD ligation). Type of data set: in vivo. As to conditions: male Wistar rats. How it is done:
Study design: To gain insight into the in-vivo effects of synthetic 17,18-EETeTr-agonists, myocardial infarction studies were performed in male Wistar rats. Briefly, rats weighing 220-250 g were randomized to receive an i.v. bolus of compound C17 (100 μg in 300 μl 0.9% NaCl) or only 300 μl 0.9% NaCl as vehicle control two hours before induction of myocardial infarction. For safe bolus application, animals were mildly anesthetized using isoflorane. Two hours after bolus application, animals were re-anesthetized with a mixture of ketamine and xylazine (i.v.). Continuous monitoring of the surface-ECG was started (EPTracer, Netherlands) and maintained until the end of the study. After recording of the basal ECG, myocardial infarction was induced by ligation of the left anterior descending artery (LAD). One hour after myocardial infarction animals were sacrificed and organ harvested. Samples from urine, blood, liver, kidney and heart were stored for further analysis.
Method of arrhythmia analysis: Ventricular tachycardia burden was calculated as the sum of all arrhythmic events originating from the ventricular myocardium, which were observed within the first hour after induction of myocardial infarction. In order to quantify not only the frequency but also the severity of the ventricular arrhythmias, an arrhythmia-severity-score was calculated. This score was calculated as the sum of the number of different arrhythmia events (PVC, couplet, triplet, VT<1.5 sec, VT>=1.5 sec), each class factorized by an increasing severity index of 1-5 (e.g. PVC×1, couplets×2, . . . , VT>=1.5 sec×5).

Data set [3] concerns neonatal rat cardiomyocytes (NRCMs). Put plainly: Response of NRCMs to increased extracellular Ca2+ and ß-adrenergic stimulation. The data set is classed as cell-based. As to conditions: 30 nM added 5 min before. How it is done:
Compound C11 was synthesized as described above (example 11). NRCMs were isolated and cultured as in Example 19. The basal Ca^2+-concentration of the medium was 1.2 mM. Increased extracellular Ca^2+-concentrations (2.2, 5.2 and 8.2 mM) were adjusted by adding appropriate amounts of a 1 M CaCl2 solution to the cultures. Isoproterenol (from Sigma-Aldrich) was used as ß-adrenoreceptor agonist and added to the cultures to give final concentrations of 0.1, 1 or 10 μM. C11 was used at a final concentration of 30 nM and added to the cultures 5 min before changing the Ca^2+-concentration or adding isoproterenol. Controls were performed in the absence of C11.

Data set [4] shares this test system. Put plainly: Antagonism of the negative chronotropic effect of agonists in NRCMs (identification of antagonists). Type of data set: cell-based. As to conditions: for inhibition of the agonistic effect of compound C4: 5 min preincubation, C4 and potential antagonist each 30 nM. How it is done: These antagonists were selected based on their capacity to abolish the negative chronotropic effects of EPA, 17,18-EETeTr and their synthetic agonists on the contractility of neonatal rat cardiomyocytes.
Potential antagonists included compounds C1, C3, C5, C6, C7, and C8, which were synthesized as described above in the corresponding examples.
The bioassay was performed with NRCMs as described in example 25. In the first series of experiments, compound C4 was used as the agonist and its effect was determined after preincubating the cultured NRCMc for 5 min with one of the potential antagonists. Both C4 and the potential antagonist were used at a final concentration of 30 nM.

The test system is the same in data set [5]. The experiment in a line: NRCM bioassay with pharmacological inhibitors (mechanism of cellular action). The data set is classed as cell-based. As to conditions: calphostin C 100 nM, H89 1 μM. How it is done:
The bioassay with NRCMs was performed as described in examples 25 and 26. […] The cultured NRCMs were preincubated without or with one of the compounds indicated in FIG. 4 for 5 min before the effect of the following agonists was determined: EPA (3.3 μM), 17,18-EETeTr (30 nM) or C13 (30 nM). In some experiments, the NRCMs were stimulated with a selective EP2 prostanoid receptor agonist (butaprost from Sigma-Aldrich; used at a final concentration of 100 nM) to provide a control for the effect of certain inhibitors.

In general, melting point refers to the temperature of the solid-liquid transition. Turning to `CCCC(=O)NCCCC/C=C\CCCCCCCCCC(=O)O` [Compound C12, 16-(Butyrylamino)hexadec-11(Z)-enoic acid], the melting point was in the range of 99.2 to 99.6 °C. In addition, the “agonistic / chronotropic effect on NRCMs, in words” value (from here on “agonistic / chronotropic effect”) in data set [1] is “largely inactive”.

Consider `CCCCNC(=O)CCC/C=C\CCCCCCCCCC(=O)O` [Compound C24, 16-(Butylamino)-16-oxohexadec-11 (Z)-enoic acid], for which the melting point was in the range of 78.2 to 78.8 °C. In addition, the “agonistic / chronotropic effect” value in data set [1] is recorded as “Agonists; also recorded: maintain”.

For `CCNC(=O)NCCCC/C=C\CCCCCCCCCC(=O)NCC(=O)[O-].[Na+]` [Compound C17, Sodium (Z)-2-(16-(3-Ethylureido)hexadec-11-enamido)acetate], the “agonistic / chronotropic effect” value in data set [1] is given as “Agonists”. Besides, in data set [2] (i.v. bolus 100 μg), the “side effects of bolus injection” value is “did not induce any obvious negative side effects”. The ventricular tachycardia burden in data set [2] (i.v. bolus 100 μg two hours before LAD ligation, first hour after infarction, n=5) amounted to 7526.2±5664.3 ms/h. This molecule displayed an arrhythmia severity score in data set [2] (i.v. bolus 100 μg two hours before LAD ligation, n=5) of 125±25 arbitrary units.

Take `CCCC(=O)NC/C=C\CCCCCCCCCCCCC(=O)O` [Compound C22, 16-Butyramidohexadec-14(Z)-enoic acid]: the melting point is 72.7 to 73.1 °C. Further, in data set [1], the “agonistic / chronotropic effect” value is listed as “positive chronotropic effect”.

On to `CCNC(=O)NCCCC/C=C\CCCCCCCCCC(=O)O` [Compound C11, 16-(3-Ethylureido)hexadec-11(Z)-enoic Acid], for which the melting point lay within 83.1 to 83.3 °C. In data set [3] (1.2 mM Ca2+ and up to 8.2 mM), the “beating rate of NRCMs at basal and increased extracellular Ca2+” value is given as “significantly reduced”. In addition, the “response of NRCMs to increasing concentrations of isoproterenol” value in data set [3] (isoproterenol 0.1, 1 or 10 μM) is “reduced the response”. For the same molecule, in data set [1] (NRCM clusters), the “chronotropic effect (Δ beats/min), mean±SE” value is listed as −27.0±1.2 beats/min. In addition, in data set [1], the “agonistic / chronotropic effect” value is listed as “Agonists”.

Take `CCC1OC1C/C=C\CCCC/C=C\CCCCCCC(=O)O` (stereo not shown) [Compound C3, (8Z,14Z)-16-(3-Ethyloxirane-2-yl)hexadeca-8,14-dienoic Acid]: the “inhibition of the agonistic effect of compound C4” value in data set [4] was “significantly inhibited”. The “effect on the negative chronotropic effect of EPA” value in data set [4] (antagonist 30 nM, EPA 3.3 μM) is recorded as “abolished”. Also, the “antagonistic effect against C4, EPA, 17,18-EETeTr, C2 and C13” value in data set [4] (antagonist 30 nM, EPA 3.3 μM, other agonists 30 nM each) is “highly potent antagonist”. For the same molecule, in data set [4] (both analogs in equimolar concentrations (30 nM)), the “effect on the negative chronotropic effect of C13” value was “almost completely blocked”. Moreover, the “agonistic / chronotropic effect” value in data set [1] is listed as “did not exert any significant effect”. In addition, the “inhibition of the negative chronotropic effects of EPA, 17,18-EETeTr and C13” value in data set [5] (5 min preincubation, 11,12-EET 30 nM, C3, AH6089 10 μM, EPA 3.3 μM, 17,18-EETeTr 30 nM, C13 30 nM) was “strongly inhibited”. Moreover, the “blocking of the positive chronotropic effect of butaprost” value in data set [5] (butaprost 100 nM, AH6089 10 μM) is given as “not”.

Molecule `CCC1OC1CCCCCCCCCCCCCCCC(=O)O` (stereo not shown) [Compound C8, 16-[(Z)-3-Ethyloxiranyl]hexadecanoic Acid] displayed a melting point of 62.1 to 62.5 °C. In addition, in data set [4], the “inhibition of the agonistic effect of compound C4” value is “did not inhibit”. Also, the “agonistic / chronotropic effect” value in data set [1] was “inactive when tested alone”.
